In ChEMBL document CHEMBL2429817, “Trisubstituted imidazoles as positive modulators of metabotropic glutamate receptor subtype 5” (ACS Med Chem Lett, 2013):
pEC50: −log10 of the molar value.

These compounds were tested against Metabotropic glutamate receptor 5 (Homo sapiens, UniProt P41594) (assay: Positive modulation of human recombinant mGluR5 expressed in HEK293A cells by calcium based FLIPR assay).
Type: functional, cell-based, HEK293-A

Sequence of Metabotropic glutamate receptor 5 (P41594 whole entry): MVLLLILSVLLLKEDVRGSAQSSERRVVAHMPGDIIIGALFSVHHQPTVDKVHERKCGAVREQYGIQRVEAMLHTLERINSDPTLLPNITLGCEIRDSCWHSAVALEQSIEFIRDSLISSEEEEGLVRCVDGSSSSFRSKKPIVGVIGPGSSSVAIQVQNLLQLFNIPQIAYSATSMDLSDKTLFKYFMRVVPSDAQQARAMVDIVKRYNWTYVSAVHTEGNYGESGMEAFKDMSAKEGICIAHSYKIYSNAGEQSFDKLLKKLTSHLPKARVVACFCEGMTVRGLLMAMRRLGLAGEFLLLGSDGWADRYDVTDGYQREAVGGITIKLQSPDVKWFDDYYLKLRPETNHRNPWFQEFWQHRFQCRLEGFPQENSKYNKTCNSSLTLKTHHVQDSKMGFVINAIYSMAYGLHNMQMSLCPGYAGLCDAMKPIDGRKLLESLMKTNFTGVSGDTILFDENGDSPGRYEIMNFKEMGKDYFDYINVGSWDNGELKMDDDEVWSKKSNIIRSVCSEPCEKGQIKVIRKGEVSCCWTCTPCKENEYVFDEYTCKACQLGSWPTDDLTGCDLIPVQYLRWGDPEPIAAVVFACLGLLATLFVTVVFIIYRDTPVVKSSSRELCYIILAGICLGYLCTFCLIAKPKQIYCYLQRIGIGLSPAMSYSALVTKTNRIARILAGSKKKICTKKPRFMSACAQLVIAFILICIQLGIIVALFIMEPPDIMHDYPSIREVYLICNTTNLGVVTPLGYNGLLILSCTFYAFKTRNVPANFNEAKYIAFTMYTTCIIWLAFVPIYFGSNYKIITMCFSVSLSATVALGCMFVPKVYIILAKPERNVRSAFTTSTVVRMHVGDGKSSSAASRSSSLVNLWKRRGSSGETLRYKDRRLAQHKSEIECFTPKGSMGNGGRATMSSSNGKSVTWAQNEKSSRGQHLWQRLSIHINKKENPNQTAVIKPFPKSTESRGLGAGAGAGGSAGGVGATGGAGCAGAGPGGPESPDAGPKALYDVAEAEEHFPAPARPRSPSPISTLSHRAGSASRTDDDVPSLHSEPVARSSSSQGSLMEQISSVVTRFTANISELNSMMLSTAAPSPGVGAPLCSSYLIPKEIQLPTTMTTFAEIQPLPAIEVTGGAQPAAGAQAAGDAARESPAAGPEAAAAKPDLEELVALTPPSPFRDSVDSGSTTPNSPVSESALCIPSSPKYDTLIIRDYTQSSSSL

Question: With Cc1cc(-c2cn(CC(=O)N3CCN(c4cccnn4)CC3)c(-c3ccccc3)n2)ccc1F as the compound, how does the pEC50 read?
Answer: 6.07

Question: How did the pEC50 turn out when CC1=NC2CCN(C(=O)Cn3cc(-c4ccc(F)c(C)c4)nc3-c3ccccc3)CC2O1 (centres undefined) was run?
Answer: 7.05

Question: With CC1=NC2CCN(C(=O)Cn3cc(-c4ccc(F)c(C)c4)nc3-c3ccc(F)cc3)CC2O1 (centres undefined) as the compound, how does the pEC50 read?
Answer: 7.40

Question: Cc1cc(-c2cn(CC(=O)N3CCN(c4ccccn4)CC3)c(-c3ccc(F)cc3)n2)ccc1F was tested. Which pEC50 did it give?
Answer: 7.28
